Read-outs that look alike come from different tables or passages of the source.
How the values were obtained:
Experiment in all cases: KINOMEscan (ScanMAX) kinase profiling
Type in all cases: binding
[1] = target: T1, panel of 468 kinases (Homo sapiens, UniProt P54764); details: EPHA4; 1 μM; read-out: % control
T1 construct: purchased KINOMEscan (ScanMAX) service

[2] = target: T2, panel of 468 kinases (Homo sapiens, UniProt O75676); details: 1 μM, read-out: % control
T2 construct: purchased KINOMEscan (ScanMAX) service

[3] = target: T3, panel of 468 kinases (Homo sapiens, UniProt Q9P2K8, S808G); details: GCN2(Kin.Dom.2,S808G); 1 μM; read-out: % control
T3 construct: purchased KINOMEscan (ScanMAX) service

[4] = target: T4, panel of 468 kinases (Homo sapiens, UniProt P51817); details: PRKX; 1 μM; read-out: % control
T4 construct: purchased KINOMEscan (ScanMAX) service
T4 sequence (P51817 1-358): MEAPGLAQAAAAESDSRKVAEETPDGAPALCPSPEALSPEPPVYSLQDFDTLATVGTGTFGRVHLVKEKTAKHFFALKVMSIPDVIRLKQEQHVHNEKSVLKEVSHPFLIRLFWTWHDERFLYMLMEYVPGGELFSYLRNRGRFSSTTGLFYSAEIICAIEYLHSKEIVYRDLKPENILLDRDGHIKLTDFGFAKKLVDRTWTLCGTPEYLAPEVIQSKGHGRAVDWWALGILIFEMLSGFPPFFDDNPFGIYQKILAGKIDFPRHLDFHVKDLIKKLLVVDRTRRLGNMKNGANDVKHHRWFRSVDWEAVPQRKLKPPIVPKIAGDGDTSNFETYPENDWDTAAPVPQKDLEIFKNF

[5] = target: T5, panel of 468 kinases (Homo sapiens, UniProt Q9P1W9); details: PIM2; 1 μM; read-out: % control
T5 construct: purchased KINOMEscan (ScanMAX) service
T5 sequence (Q9P1W9 whole entry): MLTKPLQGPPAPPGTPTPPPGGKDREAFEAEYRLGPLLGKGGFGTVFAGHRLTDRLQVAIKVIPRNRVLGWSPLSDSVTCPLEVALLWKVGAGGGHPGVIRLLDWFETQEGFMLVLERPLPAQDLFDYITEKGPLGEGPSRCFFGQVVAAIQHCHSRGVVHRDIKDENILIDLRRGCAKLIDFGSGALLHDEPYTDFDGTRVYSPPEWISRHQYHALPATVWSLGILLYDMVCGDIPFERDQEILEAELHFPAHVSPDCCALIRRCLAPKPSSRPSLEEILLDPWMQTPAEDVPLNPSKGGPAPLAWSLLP

[6] = target: T6, panel of 468 kinases (Homo sapiens, UniProt Q15569); details: TESK1; 1 μM; read-out: % control
T6 construct: purchased KINOMEscan (ScanMAX) service
T6 sequence (Q15569 whole entry): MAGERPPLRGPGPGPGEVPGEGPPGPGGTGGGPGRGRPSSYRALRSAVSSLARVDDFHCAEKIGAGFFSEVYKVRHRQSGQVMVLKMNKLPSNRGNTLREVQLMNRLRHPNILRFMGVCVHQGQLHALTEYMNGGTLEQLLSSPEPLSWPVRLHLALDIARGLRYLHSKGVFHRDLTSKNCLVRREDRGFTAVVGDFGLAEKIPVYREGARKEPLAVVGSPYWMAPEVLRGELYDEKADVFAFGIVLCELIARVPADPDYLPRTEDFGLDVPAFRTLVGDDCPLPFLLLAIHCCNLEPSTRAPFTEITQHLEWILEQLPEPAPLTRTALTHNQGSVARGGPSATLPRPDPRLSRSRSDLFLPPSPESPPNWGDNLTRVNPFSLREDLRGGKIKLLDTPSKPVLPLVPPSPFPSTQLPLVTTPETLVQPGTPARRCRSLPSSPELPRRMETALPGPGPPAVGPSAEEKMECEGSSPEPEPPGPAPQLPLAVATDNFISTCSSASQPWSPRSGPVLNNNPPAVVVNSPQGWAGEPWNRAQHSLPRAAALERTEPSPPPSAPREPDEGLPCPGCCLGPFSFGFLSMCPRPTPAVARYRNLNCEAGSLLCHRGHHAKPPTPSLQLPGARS

[7] = target: T7, panel of 468 kinases (Plasmodium falciparum, UniProt P62344); details: PFCDPK1(P.falciparum); 1 μM; read-out: % control
T7 construct: purchased KINOMEscan (ScanMAX) service

[8] = target: T8, panel of 468 kinases (Homo sapiens, UniProt Q16288); details: TRKC; 1 μM; read-out: % control
T8 construct: purchased KINOMEscan (ScanMAX) service
T8 sequence (Q16288 32-839): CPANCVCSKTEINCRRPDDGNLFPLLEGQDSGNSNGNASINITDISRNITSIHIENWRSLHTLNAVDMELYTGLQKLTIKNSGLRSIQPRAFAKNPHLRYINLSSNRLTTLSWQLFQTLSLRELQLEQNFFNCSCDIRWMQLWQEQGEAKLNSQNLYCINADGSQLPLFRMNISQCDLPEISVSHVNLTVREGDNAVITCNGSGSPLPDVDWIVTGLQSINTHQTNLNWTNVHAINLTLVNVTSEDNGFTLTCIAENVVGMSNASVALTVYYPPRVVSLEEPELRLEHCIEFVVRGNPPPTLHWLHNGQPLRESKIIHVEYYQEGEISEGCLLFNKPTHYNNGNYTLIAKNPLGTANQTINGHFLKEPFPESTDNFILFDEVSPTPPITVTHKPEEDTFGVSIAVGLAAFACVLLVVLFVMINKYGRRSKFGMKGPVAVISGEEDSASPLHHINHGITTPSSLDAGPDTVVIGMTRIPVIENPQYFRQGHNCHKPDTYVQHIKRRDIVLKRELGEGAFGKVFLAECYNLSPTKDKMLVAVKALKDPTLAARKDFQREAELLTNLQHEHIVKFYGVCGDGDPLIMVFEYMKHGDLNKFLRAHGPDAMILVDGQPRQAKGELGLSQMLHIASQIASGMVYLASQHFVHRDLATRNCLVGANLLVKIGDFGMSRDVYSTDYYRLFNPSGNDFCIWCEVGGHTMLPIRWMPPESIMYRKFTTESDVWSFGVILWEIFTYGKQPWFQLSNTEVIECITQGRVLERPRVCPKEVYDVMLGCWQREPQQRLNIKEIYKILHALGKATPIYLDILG

[9] = target: T9, panel of 468 kinases (Homo sapiens, UniProt Q9Y6M4); details: CSNK1G3; 1 μM; read-out: % control
T9 construct: purchased KINOMEscan (ScanMAX) service

[10] = target: T10, panel of 468 kinases (Homo sapiens, UniProt Q16620); details: TRKB; 1 μM; read-out: % control
T10 construct: purchased KINOMEscan (ScanMAX) service
T10 sequence (Q16620 32-822): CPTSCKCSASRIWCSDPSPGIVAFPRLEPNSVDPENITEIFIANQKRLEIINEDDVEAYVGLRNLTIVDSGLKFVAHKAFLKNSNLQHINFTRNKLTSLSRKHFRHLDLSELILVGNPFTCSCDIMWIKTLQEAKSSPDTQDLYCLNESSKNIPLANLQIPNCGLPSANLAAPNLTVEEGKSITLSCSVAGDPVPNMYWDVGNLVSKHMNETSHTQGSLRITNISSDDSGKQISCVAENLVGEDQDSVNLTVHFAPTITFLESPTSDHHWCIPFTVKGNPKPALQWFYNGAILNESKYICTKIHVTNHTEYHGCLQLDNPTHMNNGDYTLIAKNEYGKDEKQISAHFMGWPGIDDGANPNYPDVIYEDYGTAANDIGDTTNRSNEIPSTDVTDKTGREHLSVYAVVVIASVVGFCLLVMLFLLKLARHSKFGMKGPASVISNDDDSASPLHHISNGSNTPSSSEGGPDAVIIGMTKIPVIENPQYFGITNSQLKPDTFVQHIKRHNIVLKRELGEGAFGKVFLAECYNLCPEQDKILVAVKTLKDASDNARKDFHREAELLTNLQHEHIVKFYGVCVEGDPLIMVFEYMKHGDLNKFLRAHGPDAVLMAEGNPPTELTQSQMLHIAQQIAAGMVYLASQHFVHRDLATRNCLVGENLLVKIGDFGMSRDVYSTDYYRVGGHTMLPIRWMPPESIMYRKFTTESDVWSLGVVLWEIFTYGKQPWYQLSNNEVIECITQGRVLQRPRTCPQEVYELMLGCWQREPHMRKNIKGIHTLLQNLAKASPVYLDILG

[11] = target: T11, panel of 468 kinases (Homo sapiens, UniProt Q52WX2); details: SBK1; 1 μM; read-out: % control
T11 construct: purchased KINOMEscan (ScanMAX) service
T11 sequence (Q52WX2 whole entry): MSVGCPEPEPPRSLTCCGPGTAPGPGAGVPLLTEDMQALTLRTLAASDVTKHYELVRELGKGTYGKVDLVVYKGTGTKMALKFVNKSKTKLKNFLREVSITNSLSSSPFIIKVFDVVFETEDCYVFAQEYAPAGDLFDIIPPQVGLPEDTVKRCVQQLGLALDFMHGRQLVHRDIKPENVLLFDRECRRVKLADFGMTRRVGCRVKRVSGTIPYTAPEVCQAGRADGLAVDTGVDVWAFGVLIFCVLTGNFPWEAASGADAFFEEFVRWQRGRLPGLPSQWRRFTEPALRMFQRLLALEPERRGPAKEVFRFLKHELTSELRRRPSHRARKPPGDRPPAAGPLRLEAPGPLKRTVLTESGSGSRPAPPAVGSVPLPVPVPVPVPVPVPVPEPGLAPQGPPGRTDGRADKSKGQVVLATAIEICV

[12] = target: T12, panel of 468 kinases (Homo sapiens, UniProt O75716); details: STK16; 1 μM; read-out: % control
T12 construct: purchased KINOMEscan (ScanMAX) service

[13] = target: T13, panel of 468 kinases (Homo sapiens, UniProt P35626); details: GRK3; 1 μM; read-out: % control
T13 construct: purchased KINOMEscan (ScanMAX) service
T13 sequence (P35626 1-688): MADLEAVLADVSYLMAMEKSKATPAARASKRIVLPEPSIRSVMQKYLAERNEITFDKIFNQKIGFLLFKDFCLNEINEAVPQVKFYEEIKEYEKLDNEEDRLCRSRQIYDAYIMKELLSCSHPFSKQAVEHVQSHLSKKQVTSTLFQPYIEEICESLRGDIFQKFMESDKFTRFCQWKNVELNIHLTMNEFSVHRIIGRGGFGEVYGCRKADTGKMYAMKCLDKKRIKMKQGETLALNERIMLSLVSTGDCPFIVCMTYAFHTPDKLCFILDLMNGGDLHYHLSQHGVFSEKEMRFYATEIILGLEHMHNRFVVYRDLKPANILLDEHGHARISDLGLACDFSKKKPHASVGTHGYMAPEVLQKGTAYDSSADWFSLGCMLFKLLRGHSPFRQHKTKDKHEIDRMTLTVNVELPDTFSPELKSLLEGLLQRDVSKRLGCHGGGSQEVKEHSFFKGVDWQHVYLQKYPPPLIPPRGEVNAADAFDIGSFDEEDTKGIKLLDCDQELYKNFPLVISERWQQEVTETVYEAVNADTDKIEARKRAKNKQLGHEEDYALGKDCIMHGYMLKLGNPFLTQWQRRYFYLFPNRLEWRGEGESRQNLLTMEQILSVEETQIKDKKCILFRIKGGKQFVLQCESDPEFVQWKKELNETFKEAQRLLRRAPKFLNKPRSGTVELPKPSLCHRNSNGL

[14] = target: T14, panel of 468 kinases (Homo sapiens, UniProt O43353); details: RIPK2; 1 μM; read-out: % control
T14 construct: purchased KINOMEscan (ScanMAX) service
T14 sequence (O43353 whole entry): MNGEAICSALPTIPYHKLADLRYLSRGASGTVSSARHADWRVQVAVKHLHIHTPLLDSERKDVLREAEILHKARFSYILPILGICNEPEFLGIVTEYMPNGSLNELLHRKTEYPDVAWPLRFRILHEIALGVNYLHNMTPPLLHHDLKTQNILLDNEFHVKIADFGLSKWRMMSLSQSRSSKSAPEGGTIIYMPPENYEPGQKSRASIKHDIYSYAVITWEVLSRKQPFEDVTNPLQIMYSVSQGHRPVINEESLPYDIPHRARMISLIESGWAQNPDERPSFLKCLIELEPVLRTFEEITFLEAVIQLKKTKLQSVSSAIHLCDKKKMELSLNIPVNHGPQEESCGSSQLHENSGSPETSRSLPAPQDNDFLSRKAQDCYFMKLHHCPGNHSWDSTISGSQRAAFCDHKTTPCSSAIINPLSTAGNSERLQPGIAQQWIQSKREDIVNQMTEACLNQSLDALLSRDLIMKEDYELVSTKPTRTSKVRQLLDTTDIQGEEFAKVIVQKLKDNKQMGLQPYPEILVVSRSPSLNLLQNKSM

[15] = target: T15, panel of 468 kinases (Homo sapiens, UniProt O15075); details: DCAMKL1; 1 μM; read-out: % control
T15 construct: purchased KINOMEscan (ScanMAX) service

[16] = target: T16, panel of 468 kinases (Homo sapiens, UniProt Q15418); details: 1 μM, read-out: % control
T16 construct: purchased KINOMEscan (ScanMAX) service

[17] = target: T17, panel of 468 kinases (Homo sapiens, UniProt Q9UM73); details: ALK; 1 μM; read-out: % control
T17 construct: purchased KINOMEscan (ScanMAX) service

[18] = target: T18, panel of 468 kinases (Homo sapiens, UniProt P35916); details: FLT4; 1 μM; read-out: % control
T18 construct: purchased KINOMEscan (ScanMAX) service
T18 sequence (P35916 25-1363): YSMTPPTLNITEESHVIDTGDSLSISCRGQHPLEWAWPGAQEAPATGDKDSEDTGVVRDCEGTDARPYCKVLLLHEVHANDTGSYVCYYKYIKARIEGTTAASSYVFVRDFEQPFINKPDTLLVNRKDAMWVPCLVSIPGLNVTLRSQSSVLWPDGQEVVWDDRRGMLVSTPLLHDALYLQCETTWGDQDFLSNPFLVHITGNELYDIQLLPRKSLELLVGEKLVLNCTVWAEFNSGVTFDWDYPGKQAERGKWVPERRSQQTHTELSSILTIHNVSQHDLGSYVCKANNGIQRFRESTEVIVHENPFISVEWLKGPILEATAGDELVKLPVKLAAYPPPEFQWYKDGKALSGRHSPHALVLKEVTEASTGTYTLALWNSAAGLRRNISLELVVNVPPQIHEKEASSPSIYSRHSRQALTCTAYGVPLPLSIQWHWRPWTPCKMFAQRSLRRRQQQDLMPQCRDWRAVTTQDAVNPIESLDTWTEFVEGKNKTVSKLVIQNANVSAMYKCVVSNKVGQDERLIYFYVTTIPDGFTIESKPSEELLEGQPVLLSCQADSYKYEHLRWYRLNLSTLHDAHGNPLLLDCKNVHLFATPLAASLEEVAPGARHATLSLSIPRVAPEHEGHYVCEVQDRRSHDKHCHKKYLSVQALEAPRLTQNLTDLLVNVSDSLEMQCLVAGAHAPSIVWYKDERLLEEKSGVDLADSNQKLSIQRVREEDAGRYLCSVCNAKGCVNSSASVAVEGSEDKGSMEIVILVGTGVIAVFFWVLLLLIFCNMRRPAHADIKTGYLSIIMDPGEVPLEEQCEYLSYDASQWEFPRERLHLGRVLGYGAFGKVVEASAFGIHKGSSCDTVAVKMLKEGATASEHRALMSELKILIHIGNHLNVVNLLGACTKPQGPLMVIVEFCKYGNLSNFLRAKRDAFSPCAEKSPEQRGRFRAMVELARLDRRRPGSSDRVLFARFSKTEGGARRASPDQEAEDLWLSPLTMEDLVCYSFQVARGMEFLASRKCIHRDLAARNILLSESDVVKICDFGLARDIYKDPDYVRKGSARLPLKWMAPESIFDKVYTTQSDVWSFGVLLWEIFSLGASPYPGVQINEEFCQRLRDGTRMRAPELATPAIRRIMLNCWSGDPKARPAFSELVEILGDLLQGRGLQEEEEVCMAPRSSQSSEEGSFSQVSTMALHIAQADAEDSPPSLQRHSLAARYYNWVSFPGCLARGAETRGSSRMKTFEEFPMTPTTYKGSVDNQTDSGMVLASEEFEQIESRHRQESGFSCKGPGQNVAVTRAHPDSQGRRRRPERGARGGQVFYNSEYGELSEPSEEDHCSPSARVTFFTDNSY

CNc1nc(Nc2ccc(C(=O)N3CCC(N4CCOCC4)CC3)c3c2OCO3)nc2[nH]cc(Cl)c12 [Compound 75, (7-((5-chloro-4-(methylamino)-7H-pyrrolo[2,3-d]pyrimidin-2-yl)amino)benzo[d][1,3]dioxol-4-yl)(4-morpholinopiperidin-1-yl)methanone] was tested, and the remaining binding at 1 µM [1] was 92%, the remaining binding at 1 µM ([2]; RPS6KA4(Kin.Dom.1-N-terminal)) was 89% and the remaining binding at 1 µM ([2]; RPS6KA4(Kin.Dom.2-C-terminal)) was 3.9%. For the same compound, the remaining binding at 1 µM [3] was 31%, the remaining binding at 1 µM [4] was 92% and the remaining binding at 1 µM [5] was 100%. The remaining binding at 1 µM [6] was 100%, the remaining binding at 1 µM [7] was 99% and the remaining binding at 1 µM [8] was 100%. The remaining binding at 1 µM [9] was 18%, the remaining binding at 1 µM [10] was 100% and the remaining binding at 1 µM [11] was 64%. It also gave a remaining binding at 1 µM [12] of 71%, a remaining binding at 1 µM [13] of 78% and a remaining binding at 1 µM [14] of 100%. It also gave a remaining binding at 1 µM [15] of 74%, a remaining binding at 1 µM ([16]; RSK1(Kin.Dom.1-N-terminal)) of 100% and a remaining binding at 1 µM ([16]; RSK1(Kin.Dom.2-C-terminal)) of 99%. The remaining binding at 1 µM [17] was 1.9% and the remaining binding at 1 µM [18] was 100%.

Work on CNc1nc(Nc2ccc(S(=O)(=O)N3CCC(N4CCOCC4)CC3)cc2OC)nc2[nH]cc(Cl)c12 [Compound 12, 5-chloro-N2-(2-methoxy-4-((4-morpholinopiperidin-1-yl)sulfonyl)phenyl)-N4-methyl-7H-pyrrolo[2,3-d]pyrimidine-2,4-diamine] yielded a remaining binding at 1 µM [1] of 86%, a remaining binding at 1 µM ([2]; RPS6KA4(Kin.Dom.1-N-terminal)) of 100% and a remaining binding at 1 µM ([2]; RPS6KA4(Kin.Dom.2-C-terminal)) of 13%. It also gave a remaining binding at 1 µM [3] of 88%, a remaining binding at 1 µM [4] of 87% and a remaining binding at 1 µM [5] of 99%. For the same compound, the remaining binding at 1 µM [6] was 100%, the remaining binding at 1 µM [7] was 97% and the remaining binding at 1 µM [8] was 100%. It also gave a remaining binding at 1 µM [9] of 96%, a remaining binding at 1 µM [10] of 100% and a remaining binding at 1 µM [11] of 77%. For the same compound, the remaining binding at 1 µM [12] was 100%, the remaining binding at 1 µM [13] was 100% and the remaining binding at 1 µM [14] was 100%. The remaining binding at 1 µM [15] was 94%, the remaining binding at 1 µM ([16]; RSK1(Kin.Dom.1-N-terminal)) was 100% and the remaining binding at 1 µM ([16]; RSK1(Kin.Dom.2-C-terminal)) was 100%. It also gave a remaining binding at 1 µM [17] of 3.4% and a remaining binding at 1 µM [18] of 100%.

In the case of CNc1nc(Nc2ccc(P3(=O)CCN(C4CCOCC4)CC3)cc2OC)nc2[nH]cc(Cl)c12 [Compound 77, 4-(4-((5-chloro-4-(methylamino)-7H-pyrrolo[2,3-d]pyrimidin-2-yl)amino)-3-methoxyphenyl)-1-(tetrahydro-2H-pyran-4-yl)-1,4-azaphosphinane 4-oxide], the remaining binding at 1 µM [1] is reported as 79%, the remaining binding at 1 µM ([2]; RPS6KA4(Kin.Dom.1-N-terminal)) is reported as 100% and the remaining binding at 1 µM ([2]; RPS6KA4(Kin.Dom.2-C-terminal)) is reported as 0.7%. It also gave a remaining binding at 1 µM [3] of 78%, a remaining binding at 1 µM [4] of 96% and a remaining binding at 1 µM [5] of 100%. The remaining binding at 1 µM [6] was 100%, the remaining binding at 1 µM [7] was 90% and the remaining binding at 1 µM [8] was 100%. It also gave a remaining binding at 1 µM [9] of 89%, a remaining binding at 1 µM [10] of 100% and a remaining binding at 1 µM [11] of 68%. The remaining binding at 1 µM [12] was 93%, the remaining binding at 1 µM [13] was 82% and the remaining binding at 1 µM [14] was 100%. The remaining binding at 1 µM [15] was 74%, the remaining binding at 1 µM ([16]; RSK1(Kin.Dom.1-N-terminal)) was 100% and the remaining binding at 1 µM ([16]; RSK1(Kin.Dom.2-C-terminal)) was 64%. The remaining binding at 1 µM [17] was 2% and the remaining binding at 1 µM [18] was 100%.

Source: patent publication US12479847B2 (DANA-FARBER CANCER INSTITUTE, INC., priority 2019, dated 2025)
